Laboratory results published in patent US9962383B2, “Compounds, compositions and methods of agelastatin alkaloids” (Massachusetts Institute of Technology, priority 2013, dated 2018).
Entries after “also recorded” stand apart in the source; their conditions may differ. Like-named read-outs stand apart in the source and are kept apart here.

Legend:
HeLa = experiment: 48-hour IC50 by SRB, HeLa cervical carcinoma cells; format: cell-based, human
Experimental: (§1) Cells were grown in media supplemented with fetal bovine serum (FBS) and antibiotics (100 μg/mL penicillin and 100 U/mL streptomycin). […] Cells were incubated at 37° C. in a 5% CO2, 95% humidity atmosphere.
(§2) Adherent cells (HeLa, A549, BT549, and IMR90) were added into 96-well plates (5,000 cells/well for HeLa cell line; 2,000 cells/well for A549, BT549, and IMR90 cell lines) in 100 μL media and were allowed to adhere for 2-3 hours. Compounds were solubilized in DMSO as 100× stocks, added directly to the cells (100 μL final volume), and tested over a range of concentrations (1 nM to 10 μM) in triplicate (1% DMSO final) on a half-log scale. DMSO and cell-free wells served as the live and dead control, respectively. […] Briefly, media was removed from the plate, and cells were fixed by the addition of 100 μL cold 10% trichloroacetic acid in water. After incubating at 4° C. for 1 h, the plates were washed in water and allowed to dry. Sulforhordamine B was added as a 0.057% solution in 1% acetic acid (100 μL), and the plates were incubated at room temperature for 30 min, washed in 1% acetic acid, and allowed to dry. […] IC50 values were determined from three or more independent experiments using TableCurve (San Jose, Calif.).

[1] = system: human cell lines (U-937, HeLa, A549, BT549, IMR90); experiment: Ability to induce cell death in the panel of five human cell lines (Table 3); format: cell-based; conditions: for activity (ability to induce cell death) in words: 48-hour exposure, 1 nM to 10 μM, cell lines of Table 3; for reduction in anticancer potency relative to the compared agelastatin: (−)-2 vs (−)-1, (−)-6 vs (−)-4, D (4) and E (5) vs A (1), Table 3 data
Experimental: Six (−)-agelastatins along with eight closely related derivatives prepared in the above examples were tested (Table 3). The six (−)-agelastatin alkaloids (1-6, respectively), (−)-O-methyl-di-epi-agelastatin A (50), (−)-dehydroagelastatin A (51), (−)-di-epi-agelastatin C (52), (+)-O-methyl-pre-agelastatin A and D (39 and 53, respectively), along with bicyclic pyrroles (+)-44, (+)-45, and triazone (+)-48 were tested for their ability to induce cell death in four human cancer cell lines (U-937, lymphoma; HeLa, cervical carcinoma; A549, non-small cell lung carcinoma; and BT549, breast carcinoma) and one immortalized normal human cell line (IMR90, lung fibroblasts) after a 48-hour exposure. […] Furthermore, enhanced activities in U-937 (20×) cell relative to the other cell lines (Table 3) were observed.
Adherent cells (HeLa, A549, BT549, and IMR90) were added into 96-well plates (5,000 cells/well for HeLa cell line; 2,000 cells/well for A549, BT549, and IMR90 cell lines) in 100 μL media and were allowed to adhere for 2-3 hours. Compounds were solubilized in DMSO as 100× stocks, added directly to the cells (100 μL final volume), and tested over a range of concentrations (1 nM to 10 μM) in triplicate (1% DMSO final) on a half-log scale. DMSO and cell-free wells served as the live and dead control, respectively. After 48 h of continuous exposure, the plates were evaluated using the SRB colorimetric assay as described previously (V. Vichai, K. Kirtikara, Nature Prot., 2006, 1, 1112). Briefly, media was removed from the plate, and cells were fixed by the addition of 100 μL cold 10% trichloroacetic acid in water. After incubating at 4° C. for 1 h, the plates were washed in water and allowed to dry. Sulforhordamine B was added as a 0.057% solution in 1% acetic acid (100 μL), and the plates were incubated at room temperature for 30 min, washed in 1% acetic acid, and allowed to dry. The dye was solubilized by adding 10 mM Tris base solution (pH 10.5, 200 μL) and incubating at room temperature for 30 min Plates were read at λ=510 nm. IC50 values were determined from three or more independent experiments using TableCurve (San Jose, Calif.).
In a 96-well plate, compounds were pre-added as DMSO stocks (1% final) in triplicate to achieve final concentrations of 1 nM to 10 μM on a half log scale. DMSO and cell-free wells served as the live and dead control, respectively. Suspension cells (U-937, CEM, CA46, Daudi, HL-60, and Jurkat; 10,000 cells/well) cells were distributed in 100 μL media to the compound-containing plate. After 48 h, cell viability was assessed by adding 20 μL of a PMS/MTS solution (A. H. Cory, T. C. Owen, J. A. Barltrop, J. G. Cory, Cancer Commun., 1991, 3, 207) to each well, allowing the dye to develop at 37° C. until the live control had processed MTS, and reading the absorbance at λ=490 nm. IC50 values were determined from three or more independent experiments using TableCurve (San Jose, Calif.).

U-937 = experiment: 48-hour IC50 by MTS, U-937 lymphoma cells; format: cell-based, human
Experimental: as §1
(§3) In a 96-well plate, compounds were pre-added as DMSO stocks (1% final) in triplicate to achieve final concentrations of 1 nM to 10 μM on a half log scale. DMSO and cell-free wells served as the live and dead control, respectively. […] IC50 values were determined from three or more independent experiments using TableCurve (San Jose, Calif.).

IMR90 = experiment: 48-hour IC50 by SRB, IMR90  lung fibroblasts; format: cell-based, human
Experimental: as §1, §2

A549 = experiment: 48-hour IC50 by SRB, A549 non-small cell lung carcinoma cells; format: cell-based, human
Experimental: as §1, §2

BT549 = experiment: 48-hour IC50 by SRB, BT549 breast carcinoma cells; format: cell-based, human
Experimental: as §1, §2

CA46 = experiment: 48-hour IC50 by MTS, CA46 Burkitt's lymphoma cells; format: cell-based, human
Experimental: as §1, §3

HL-60 = experiment: 48-hour IC50 by MTS, HL-60 acute promyelocytic leukemia cells; format: cell-based, human
Experimental: as §1, §3

CEM = experiment: 48-hour IC50 by MTS, CEM acute lymphoblastic leukemia cells; format: cell-based, human
Experimental: as §1, §3

Jurkat = experiment: 48-hour IC50 by MTS, Jurkat acute T-cell leukemia cells; format: cell-based, human
Experimental: as §1, §3

Daudi = experiment: 48-hour IC50 by MTS, Daudi Burkitt's lymphoma cells; format: cell-based, human
Experimental: as §1, §3

[2] = system: procaspase-3 and PARP-1 cleavage; experiment: Western blot analysis of procaspase-3 and PARP-1 cleavage in U-937 cells; format: cell-based, human; conditions: 24 hours
Experimental: FIG. 2. […] Western blot analysis of procaspase-3 and PARP-1 cleavage at 24 hours in U-937 cells using β-actin as loading control. Compounds were tested at indicated concentrations and STS (10 nM); C3=caspase-3; PARP=poly(ADP-ribose) polymerase 1; PC3=procaspase-3; STS=staurosporine.

tubulin dynamics = experiment: Tubulin microscopy with HeLa cells; format: cell-based, human; conditions: 16 hours, confocal microscopy
Experimental: HeLa cells were treated with compound for 16 hours, fixed, stained, and visualized using confocal microscopy.
Round, 1.5 mm coverslips (No. 1.5) were sterilized with ultraviolet light and placed in a 12-well plate. HeLa cells (100,000 cells/well) were added and allowed to adhere for eight hours. Compounds were then added as DMSO stocks to achieve a final DMSO concentration of 1%, and the plates were returned to the incubator for 16 hours.
Following incubation, the media was removed, and the coverslips were fixed with 0.5 mL Microtubulin Stabilizing Buffer (MTSB, 80 mM PIPES, pH 6.8, 1 mM MgCl2, 5 mM EGTA, 0.5% TX-100)+0.5% glutaraldehyde for 10 minutes at room temperature, after which the fixative was removed and the sample was quenched with the addition of 0.5 mL of freshly-prepared 1 mg/mL NaBH4 in PBS. After a 5 min incubation, the solution was removed by aspiration and the coverslips were washed with PBS.
Coverslips were transferred to parafilm-lined culture dishes (cell-side up), and 40 μL of 50 μg/mL RNase A in Antibody Diluting Solution (AbDil, PBS, pH 7.4, 0.2% TX-100, 2% BSA, 0.1% NaN3) with 1:50 dilution of anti-α-tubulin-FITC antibody was added to all samples. The samples were allowed to incubate at room temperature in the dark for 2.5 hours, after which the coverslips were washed three times with PBS+0.1% TX-100. […]

synchronized U-937 cells = experiment: Cell cycle arrest in thymidine-synchronized U-937 cells; format: cell-based, human; conditions: 16 hours, PI, flow cytometry
Experimental: Samples were fixed, treated with an RNAse, stained with PI, and analyzed by flow cytometry. Taxol, a microtubule stabilizer, was used as a positive control. Error bars represent standard deviation of the mean, n=3. * p<0.01. PI=propidium iodide.
U-937 cells were split to 50% confluency (250,000 cells/mL) and treated with 2 mM thymidine for 10 hours. The cells were then pelleted (500 g, 3 minutes) and washed with PBS before being resuspended in thymidine-free media and allowed to recover for 13 hours. The cells were then re-blocked with 2 mM thymidine for 10 hours, and then washed with PBS as before and resuspended in media (250,000 cells/mL).
DMSO stocks of compounds were added to a 24-well plate in triplicate (0.2% DMSO final), after which 1 mL of the prepared cell suspension was added. Following a 16 h incubation, the cell suspensions were transferred to 2 mL tubes and pelleted (600 g, 3 min). The media was removed by aspiration, and the cells were fixed with 0.5 mL of ice cold 70% ethanol with vortexing. The samples were fully fixed at −20° C. for 3 hours. The samples were then pelleted (1000 g, 5 min) and the supernatant was removed via aspiration. […] Prior to reading, the samples were taken up in 150 μL of 50 μg/mL propidium iodide in PBS and transferred to flow cytometry tubes. Samples were analyzed based on whole, single cells.

U-937 cells = experiment: Apoptosis in U-937 cells with Annexin V-FITC and propidium iodide; format: cell-based, human; conditions: 21 hours, flow cytometry
Experimental: FIG. 3. […] Analysis of phosphatidylserine exposure and propidium iodide inclusion at 21 hours in U-937 cells. Compounds were tested at indicated concentrations and STS was used as a positive control for apoptosis. Samples were analyzed by flow cytometry for the relative timing of phosphatidylserine exposure relative to PI inclusion. FITC=fluorescein isothiocyanate; PI=propidium iodide; STS=staurosporine.
DMSO stocks of compounds were added to a 24-well plate in singlicate (0.2% DMSO final). […] Following treatment, the cell suspensions were transferred to flow cytometry tubes and pelleted (500 g, 3 min). The media was removed by aspiration, and cells were resuspended in 200 μL AnnV binding buffer (10 mM HEPES, pH 7.4, 140 mM NaCl, 2.5 mM CaCl2) with 5 μg/mL PI and 1:90 dilution of AnnV. Samples were analyzed using flow cytometry.

[3] = IMR90 immortalized lung fibroblasts

Row | Molecule | IC50 (HeLa) [µM] | activity (ability to induce cell death) in words [1] | IC50 (U-937) [µM] | IC50 (IMR90; [3]) [µM] | IC50 (A549) [µM] | IC50 (BT549) [µM] | IC50 (CA46) [µM] | IC50 (HL-60) [µM] | IC50 (CEM) [µM] | IC50 (Jurkat) [µM] | IC50 (Daudi) [µM] | other results
1 | COC1NC(=O)c2ccc(Br)n2C1Cc1c[nH]c(=O)[nH]1 (single isomer, unassigned; (+)) [(+)-53, (+)-O-methyl-pre-agelastatin D] | > 10 | None | > 10 | > 10 | > 10 | > 10 | – | – | – | – | – | –
2 | CO[C@H]1NC(=O)c2ccc(Br)n2[C@@H]1Cc1c[nH]c(=O)n1C [(+)-39, (+)-O-methyl-pre-agelastatin A] | – | None | – | – | – | – | – | – | – | – | – | IC50 (HeLa; Homo sapiens): > 10 µM; IC50 (U-937; Homo sapiens): > 10 µM; IC50 (IMR90; Homo sapiens, IMR-90, IMR90 immortalized lung fibroblasts): > 10 µM; IC50 (A549; Homo sapiens): > 10 µM; IC50 (BT549; Homo sapiens, BT-549): > 10 µM
3 | CN1C(=O)N[C@@]2(O)[C@@H]3NC(=O)c4ccc(Br)n4[C@@H]3C[C@@]12O [(−)-3, (−)-agelastatin C] | > 10 | – | > 10 | > 10 | > 10 | > 10 | > 10 | > 10 | 2.1 ± 1.3 | 5.31 ± 0.35 | 7.2 ± 2.9 | activity (ability to induce cell death) in words ([1]; listed as (−)-agelastatin C (3)): little activity at the concentrations examined; also recorded: abolishes activity
4 | O=C1N[C@H]2[C@@H]3NC(=O)c4ccc(Br)n4[C@@H]3C[C@@]2(O)N1 [(−)-4, (−)-agelastatin D] | 1 ± 0.2 | – | 0.24 ± 0.033 | 2.75 ± 0.6 | 0.92 ± 0.16 | 0.631 ± 0.082 | 0.46 ± 0.24 | 0.54 ± 0.12 | 0.074 ± 0.025 | 0.21 ± 0.063 | 0.202 ± 0.015 | reduction in anticancer potency relative to the compared agelastatin [1]: 1-5 fold; activation of procaspase-3 to active caspase-3 and cleavage of PARP-1 [2]: dose-dependent activation; effect on tubulin dynamics (tubulin dynamics): do not affect tubulin dynamics; G2/M cell cycle arrest (synchronized U-937 cells): dose-dependent G2/M cell cycle arrest; apoptosis (phosphatidylserine exposure and propidium iodide inclusion) (U-937 cells): induced dose-dependent apoptosis
5 | CO[C@@]12C[C@@H]3[C@@H](NC(=O)c4ccc(Br)n43)[C@@H]1NC(=O)N2C [(−)-5, (−)-agelastatin E] | 8.6 ± 0.81 | relatively weaker activity | 2.56 ± 0.13 | > 10 | > 10 | 6.9 ± 2.5 | 2.45 ± 0.95 | 4.6 ± 3.6 | 0.83 ± 0.37 | 1.5 ± 0.33 | 1.41 ± 0.53 | reduction in anticancer potency relative to the compared agelastatin [1]: > 10 fold
6 | O=C1N[C@H]2[C@@H]3NC(=O)c4cc(Br)c(Br)n4[C@@H]3C[C@@]2(O)N1 [(−)-6, (−)-agelastatin F] | > 10 | little activity at the concentrations examined | > 10 | > 10 | > 10 | > 10 | > 10 | > 10 | > 10 | > 10 | > 10 | –
7 | (−)-O-methyl-di-epi-agelastatin A [(−)-50] | > 10 | None | > 10 | > 10 | > 10 | > 10 | – | – | – | – | – | –
8 | (−)-agelastatin B [(−)-2] | 4.8 ± 1.2 | relatively weaker activity | 1.06 ± 0.16 | > 10 | > 10 | 4.8 ± 1.1 | 1.07 ± 0.42 | 2.4 ± 1 | 0.29 ± 0.2 | 0.75 ± 0.44 | 0.46 ± 0.28 | –
9 | (−)-dehydroagelastatin A [(−)-51] | > 10 | None | > 10 | > 10 | > 10 | > 10 | – | – | – | – | – | –
10 | (−)-di-epi-agelastatin C [(−)-52] | > 10 | None | > 10 | > 10 | > 10 | > 10 | – | – | – | – | – | –
